Laboratory results reported in the NIST ThermoML archive (doi:10.1021/je800150h).
Numbers after ± are expanded uncertainties.

Assay: mn = molality of the nth substance listed, in mol/kg
Conditions: 101 kPa, Liquid; for electrical conductivity: CyberScan CON500 conductivity meter

[Cl-].[Li+] [lithium chloride] + CCO
Conditions	electrical conductivity [S/m]	mass density [kg/m3]	viscosity [mPa·s]
298.15 K, m1 = 0.196	0.231 ± 0.018	782.4 ± 2.9	1.218 ± 0.059
298.15 K, m1 = 0.391	0.354 ± 0.028	788.3 ± 2.9	1.412 ± 0.068
298.15 K, m1 = 0.782	0.506 ± 0.041	799.4 ± 3	1.677 ± 0.079
298.15 K, m1 = 1.173	0.589 ± 0.047	810.3 ± 3	2.057 ± 0.096
298.15 K, m1 = 1.76	0.629 ± 0.05	823.8 ± 3.1	2.767 ± 0.13
298.15 K, m1 = 2.347	0.6 ± 0.048	842.3 ± 3.2	3.869 ± 0.18
298.15 K, m1 = 3.129	0.514 ± 0.041	861.9 ± 3.3	5.908 ± 0.26
298.15 K, m1 = 3.911	0.427 ± 0.034	880.5 ± 3.4	9.071 ± 0.37
303.15 K, m1 = 0.196	0.25 ± 0.02	776.5 ± 3	1.089 ± 0.053
303.15 K, m1 = 0.391	0.384 ± 0.031	782.5 ± 3.1	1.306 ± 0.063
303.15 K, m1 = 0.782	0.554 ± 0.044	794.7 ± 3.1	1.527 ± 0.073
303.15 K, m1 = 1.173	0.649 ± 0.052	804.8 ± 3.2	1.846 ± 0.087
303.15 K, m1 = 1.76	0.697 ± 0.056	819.5 ± 3.3	2.469 ± 0.11
303.15 K, m1 = 2.347	0.67 ± 0.054	837.1 ± 3.4	3.436 ± 0.16
303.15 K, m1 = 3.129	0.575 ± 0.046	856.7 ± 3.5	5.171 ± 0.23
303.15 K, m1 = 3.911	0.487 ± 0.039	875.4 ± 3.6	7.924 ± 0.33
308.15 K, m1 = 0.196	0.27 ± 0.022	773.8 ± 3.2	1.006 ± 0.05
308.15 K, m1 = 0.391	0.42 ± 0.034	779.7 ± 3.2	1.129 ± 0.055
308.15 K, m1 = 0.782	0.605 ± 0.048	791.2 ± 3.3	1.369 ± 0.066
308.15 K, m1 = 1.173	0.711 ± 0.057	802.3 ± 3.4	1.671 ± 0.079
308.15 K, m1 = 1.76	0.772 ± 0.062	816.6 ± 3.4	2.223 ± 0.1
308.15 K, m1 = 2.347	0.746 ± 0.06	835.6 ± 3.5	3.077 ± 0.14
308.15 K, m1 = 3.129	0.644 ± 0.051	854.7 ± 3.6	4.578 ± 0.21
308.15 K, m1 = 3.911	0.551 ± 0.044	873.6 ± 3.7	6.884 ± 0.29
313.15 K, m1 = 0.196	0.289 ± 0.023	773 ± 3.4	0.928 ± 0.046
313.15 K, m1 = 0.391	0.447 ± 0.036	779 ± 3.4	1.046 ± 0.052
313.15 K, m1 = 0.782	0.652 ± 0.052	790.7 ± 3.5	1.267 ± 0.061
313.15 K, m1 = 1.173	0.773 ± 0.062	801.9 ± 3.5	1.524 ± 0.073
313.15 K, m1 = 1.76	0.852 ± 0.068	815.8 ± 3.6	2.01 ± 0.094
313.15 K, m1 = 2.347	0.822 ± 0.066	835.2 ± 3.7	2.762 ± 0.13
313.15 K, m1 = 3.129	0.712 ± 0.057	854.7 ± 3.8	4.089 ± 0.18
313.15 K, m1 = 3.911	0.624 ± 0.05	873.7 ± 3.9	6.076 ± 0.26
318.15 K, m1 = 0.196	0.309 ± 0.025	772.2 ± 3.6	0.866 ± 0.044
318.15 K, m1 = 0.391	0.48 ± 0.038	778.6 ± 3.6	0.968 ± 0.048
318.15 K, m1 = 0.782	0.708 ± 0.057	790.9 ± 3.7	1.164 ± 0.057
318.15 K, m1 = 1.173	0.843 ± 0.067	801.8 ± 3.7	1.414 ± 0.068
318.15 K, m1 = 1.76	0.931 ± 0.074	816.8 ± 3.8	1.842 ± 0.087
318.15 K, m1 = 2.347	0.91 ± 0.073	834.9 ± 3.9	2.538 ± 0.12
318.15 K, m1 = 3.129	0.792 ± 0.063	853.9 ± 4	3.735 ± 0.17
318.15 K, m1 = 3.911	0.697 ± 0.056	874 ± 4.1	5.603 ± 0.25
323.15 K, m1 = 0.196	0.327 ± 0.026	768.7 ± 3.8	0.807 ± 0.041
323.15 K, m1 = 0.391	0.512 ± 0.041	774.3 ± 3.8	0.884 ± 0.045
323.15 K, m1 = 0.782	0.762 ± 0.061	786.1 ± 3.8	1.07 ± 0.053
323.15 K, m1 = 1.173	0.911 ± 0.073	796.6 ± 3.9	1.285 ± 0.062
323.15 K, m1 = 1.76	1.02 ± 0.082	811 ± 4	1.677 ± 0.079
323.15 K, m1 = 2.347	0.998 ± 0.08	830.4 ± 4.1	2.335 ± 0.11
323.15 K, m1 = 3.129	0.875 ± 0.07	851.3 ± 4.2	3.437 ± 0.16
323.15 K, m1 = 3.911	0.783 ± 0.063	869.4 ± 4.3	5.009 ± 0.23
